Experimental data reported in US20210361715A1, “USE OF EXOSOME DERIVED FROM MESENCHYMAL STEM CELLS CO-CULTURED WITH MELATONIN IN PREVENTION AND TREATMENT OF CHRONIC KIDNEY DISEASE” (STEM BIO CO., LTD., priority 2020, published 2021).

Key:
[1] = tested on: cellular prion protein (PrPC); format: cell-based, human; conditions: healthy and CKD patient MSCs treated with melatonin; ELISA; FIGS. 4B, 4C
miR-4516 = assay: miRNA / miR-4516 expression by RNA microarray and qPCR in MSCs and exosomes; format: cell-based, human; conditions: healthy MSCs and CKD-MSCs treated with melatonin; qPCR; FIG. 4F

COc1ccc2[nH]cc(CCNC(C)=O)c2c1 [melatonin]
expression of prion proteins present in the exosomes extracted from stem cells [1]: increases
expression level of miR-4516 in stem cells (miR-4516): increase
